In patent US7524964B2, “Tetrahydrothiopyrano pyrazole cannabinoid modulators” (Janssen Pharmaceutica NV, priority 2005, dated 2009):
Read-outs that look alike come from different tables or passages of the source.

Assays:
human CB1 receptor = human CB1 receptor (Homo sapiens, UniProt P21554); assay: Binding assay, cannabinoid CB1 receptor ([3H]-CP-55,940 displacement); design: expressed in transfected cells; host or cells: SK-N-MC cells, pcDNA3 CB-1 (human), semi-purified membranes; conditions: for inhibition at 1 µM: test concentration 1 μM (superscript b); for inhibition at 1 µM / inhibition at 0.2 µM: read-out: CB1 binding percent inhibition; for inhibition at 0.2 µM: test concentration 0.2 μM (superscript a)
Sequence of human CB1 receptor (P21554 whole entry): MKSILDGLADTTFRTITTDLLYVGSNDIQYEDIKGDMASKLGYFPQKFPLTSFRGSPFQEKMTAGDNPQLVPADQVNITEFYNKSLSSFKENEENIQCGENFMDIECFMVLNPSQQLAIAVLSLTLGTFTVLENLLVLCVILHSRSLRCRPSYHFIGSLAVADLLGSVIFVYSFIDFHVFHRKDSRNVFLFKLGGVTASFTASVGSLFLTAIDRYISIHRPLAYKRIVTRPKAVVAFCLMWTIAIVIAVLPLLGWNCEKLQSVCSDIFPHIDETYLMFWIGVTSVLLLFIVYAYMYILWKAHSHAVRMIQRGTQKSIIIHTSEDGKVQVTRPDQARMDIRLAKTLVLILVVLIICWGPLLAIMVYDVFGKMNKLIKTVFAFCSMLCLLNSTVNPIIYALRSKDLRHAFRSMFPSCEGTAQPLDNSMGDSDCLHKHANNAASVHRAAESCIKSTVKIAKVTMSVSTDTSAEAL
Description: (§1) Binding Assay for CB1 or CB2 Agonists or Inverse Agonists
(§2) The human CB-1 and CB-2 receptors were stably expressed in SK-N-MC cells transfected with pcDNA3 CB-1 (human) or pcDNA3 CB-2 (human). The cells were grown in T-180 cell culture flasks under standard cell culture conditions at 37° C. in a 5% CO2 atmosphere. The cells were harvested by trypsinization and homogenized in a homogenization buffer (10 mM Tris, 0.2 mM MgCl2, 5 mM KCl, with protease inhibitors aprotinin, leupeptin, pepstatin A and bacitracin) and centrifuged (2000 g). The supernatant was then centrifuged in 2M sucrose (31,300 g) to produce a semi-purified membrane pellet. The pellet was resuspended in homogenization and store at −80° C.
(§3) On the day of the assay, the pellet was thawed on ice and diluted in assay buffer (50 mM Tris-HCl, 5 mM MgCl2, 2.5 mM EDTA, 0.5 mg/mL fatty acid free bovine serum albumin, pH 7.5). The diluted membrane was added with buffer, test compound or standard and the radioligand [H]^3+-CP-55,940_(0.2 nM) to the wells of a 96-well polypropylene plate. Non-specific binding was measured in wells containing 10 uM WIN 55,212. The plate was covered and incubated for 90 minutes at 30° C. The contents were then aspirated onto a Packard Unifilter G/C filter bottom plate prewet with 0.5% polyethyleneimine. The wells of the polypropylene plate were rinsed and aspirated seven times with a 0.9% saline-0.5% Tween 20 solution. The Unifilter plate was dried, a scintillation cocktail was added to each well and the counts representing binding were quantitated in a TopCount scintillation counter.
(§4) The IC50 binding values for compounds tested were calculated by linear regression and were obtained from studies in which varying compound concentrations were used. Where an IC50 was not obtained, test results are provided as percent inhibition at a test concentration of ^a0.2 μM, ^b1 μM or ^c10 μM.

human CB-2 receptor = molecular target: T1, human CB-2 receptor (Homo sapiens, UniProt P34972); assay: Binding assay, cannabinoid CB2 receptor ([3H]-CP-55,940 displacement); conditions: read-out: CB2 binding percent inhibition; for inhibition at 1 µM: test concentration 1 μM (superscript b)
T1 construct: expressed in transfected cells; host or cells: SK-N-MC cells, pcDNA3 CB-2 (human), semi-purified membranes
T1 sequence (P34972 whole entry): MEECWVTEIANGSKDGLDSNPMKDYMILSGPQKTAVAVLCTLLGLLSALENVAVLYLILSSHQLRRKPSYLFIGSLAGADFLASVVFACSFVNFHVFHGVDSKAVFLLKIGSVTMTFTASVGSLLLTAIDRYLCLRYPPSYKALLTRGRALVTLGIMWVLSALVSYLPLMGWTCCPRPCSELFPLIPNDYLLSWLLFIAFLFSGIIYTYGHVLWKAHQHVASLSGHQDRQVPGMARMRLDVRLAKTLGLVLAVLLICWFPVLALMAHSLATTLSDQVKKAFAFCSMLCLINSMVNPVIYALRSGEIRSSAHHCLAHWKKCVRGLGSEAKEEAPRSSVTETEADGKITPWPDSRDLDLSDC
Description: as §1, §2, §3, §4

[1] = test concentration 0.2 μM (superscript a)

Compound	inhibition at 0.2 µM (human CB1 receptor) [%]	inhibition at 0.2 µM (human CB-2 receptor; [1]) [%]	further results
C[C@@H](NS(=O)(=O)/C=C/c1c2c(nn1Cc1ccccc1)CCSC2)C1CCCCC1 [Cpd 6, (E)-2-(2-benzyl-2,4,6,7-tetrahydro-thiopyrano[4,3-c]pyrazol-3-yl)-ethenesulfonic acid [(1R)-1-cyclohexyl-ethyl]-amide]			inhibition at 1 µM (human CB1 receptor): 16%; inhibition at 1 µM (human CB-2 receptor): 0%
C[C@@H](NS(=O)(=O)/C=C/c1nn(Cc2ccccc2)c2c1CSCC2)c1ccccc1 [Cpd 7, (E)-2-(1-benzyl-1,4,6,7-tetrahydro-thiopyrano[4,3-c]pyrazol-3-yl)-ethenesulfonic acid [(1R)-1-phenyl-ethyl]-amide]			inhibition at 1 µM (human CB1 receptor): 15%; inhibition at 1 µM (human CB-2 receptor): 44%
CN(NC(=O)c1nn(-c2ccc(Cl)cc2)c2c1CS(=O)(=O)C/C2=C\c1ccc(F)cc1)c1ccccc1 [Cpd 100, (7Z)-1-(4-chloro-phenyl)-7-(4-fluoro-benzylidene)-5,5-dioxo-4,5,6,7-tetrahydro-1H-5λ^6-thiopyrano[4,3-c]pyrazole-3-carboxylic acid N′-methyl-N′-phenyl-hydrazide]			IC50 (human CB1 receptor): 0.025 µM; inhibition at 0.2 µM (human CB-2 receptor): 9%
CN1CCN(NC(=O)c2nn(-c3ccc(Cl)cc3Cl)c3c2CS(=O)(=O)C/C3=C\c2ccc(F)cc2)CC1 [Cpd 109, (7Z)-1-(2,4-dichloro-phenyl)-7-(4-fluoro-benzylidene)-5,5-dioxo-4,5,6,7-tetrahydro-1H-5λ^6-thiopyrano[4,3-c]pyrazole-3-carboxylic acid (4-methyl-piperazin-1-yl)-amide]	4	6	
CCOC(=O)[C@@H]1C2CCC(C2)[C@@H]1NC(=O)c1nn(-c2ccc(F)cc2F)c2c1CS(=O)(=O)C[C@H]2Cc1cccc(F)c1 (stereo partly drawn) [Cpd 50, (2R,3S)-3-{[1-(2,4-difluoro-phenyl)-(7S)-(3-fluoro-benzyl)-5,5-dioxo-4,5,6,7-tetrahydro-1H-5λ^6-thiopyrano[4,3-c]pyrazole-3-carbonyl]-amino}-bicyclo[2.2.1]heptane-2-carboxylic acid ethyl ester]	50	24	
C[C@H](NS(=O)(=O)/C=C/c1nn(-c2ccc(F)cc2F)c2c1CS(=O)(=O)CC2Cc1cccc(F)c1)c1ccccc1 (stereo partly drawn) [Cpd 42, (E)-2-[1-(2,4-difluoro-phenyl)-7-(3-fluoro-benzyl)-5,5-dioxo-4,5,6,7-tetrahydro-1H-5λ^6-thiopyrano[4,3-c]pyrazol-3-yl]-ethenesulfonic acid [(1S)-1-phenyl-ethyl]-amide]	31	20	
C[C@H](NC(=O)c1c2c(nn1-c1ccc(Cl)cc1Cl)/C(=C/c1ccc(F)cc1)CSC2)C1CCCCC1 [Cpd 90, (7Z)-2-(2,4-dichloro-phenyl)-7-(4-fluoro-benzylidene)-2,4,6,7-tetrahydro-thiopyrano[4,3-c]pyrazole-3-carboxylic acid [(1S)-1-cyclohexyl-ethyl]amide]	31	18	
O=C(NCc1ccccn1)c1nn(-c2ccc(Cl)cc2Cl)c2c1CSC/C2=C\c1ccc(F)cc1 [Cpd 72, (7Z)-1-(2,4-dichloro-phenyl)-7-(4-fluoro-benzylidene)-1,4,6,7-tetrahydro-thiopyrano[4,3-c]pyrazole-3-carboxylic acid (pyridin-2-ylmethyl)-amide]	48	10	
O=C(NN1CC2CCCC2C1)c1nn(-c2ccc(Cl)cc2)c2c1CS(=O)(=O)C/C2=C\c1ccc(F)cc1 (stereo not drawn) [Cpd 97, (7Z)-1-(4-chloro-phenyl)-7-(4-fluoro-benzylidene)-5,5-dioxo-4,5,6,7-tetrahydro-1H-5λ^6-thiopyrano[4,3-c]pyrazole-3-carboxylic acid (hexahydro-cyclopenta[c]pyrrol-2-yl)-amide]		8	IC50 (human CB1 receptor): 0.068 µM
